Each structure is given as a SMILES string.

Among the data in patent US12157746B2, “Tetrahydro-1H-pyrazino[2,1-a]isoindolylquinoline compounds for the treatment of autoimmune disease” (F. HOFFMANN-LA ROCHE AG, priority 2018, dated 2024) are IC50 values, retold here.

This assay has as its target T1, human TLR9 (Homo sapiens, UniProt Q9NR96).
T1 sequence (Q9NR96 26-1032): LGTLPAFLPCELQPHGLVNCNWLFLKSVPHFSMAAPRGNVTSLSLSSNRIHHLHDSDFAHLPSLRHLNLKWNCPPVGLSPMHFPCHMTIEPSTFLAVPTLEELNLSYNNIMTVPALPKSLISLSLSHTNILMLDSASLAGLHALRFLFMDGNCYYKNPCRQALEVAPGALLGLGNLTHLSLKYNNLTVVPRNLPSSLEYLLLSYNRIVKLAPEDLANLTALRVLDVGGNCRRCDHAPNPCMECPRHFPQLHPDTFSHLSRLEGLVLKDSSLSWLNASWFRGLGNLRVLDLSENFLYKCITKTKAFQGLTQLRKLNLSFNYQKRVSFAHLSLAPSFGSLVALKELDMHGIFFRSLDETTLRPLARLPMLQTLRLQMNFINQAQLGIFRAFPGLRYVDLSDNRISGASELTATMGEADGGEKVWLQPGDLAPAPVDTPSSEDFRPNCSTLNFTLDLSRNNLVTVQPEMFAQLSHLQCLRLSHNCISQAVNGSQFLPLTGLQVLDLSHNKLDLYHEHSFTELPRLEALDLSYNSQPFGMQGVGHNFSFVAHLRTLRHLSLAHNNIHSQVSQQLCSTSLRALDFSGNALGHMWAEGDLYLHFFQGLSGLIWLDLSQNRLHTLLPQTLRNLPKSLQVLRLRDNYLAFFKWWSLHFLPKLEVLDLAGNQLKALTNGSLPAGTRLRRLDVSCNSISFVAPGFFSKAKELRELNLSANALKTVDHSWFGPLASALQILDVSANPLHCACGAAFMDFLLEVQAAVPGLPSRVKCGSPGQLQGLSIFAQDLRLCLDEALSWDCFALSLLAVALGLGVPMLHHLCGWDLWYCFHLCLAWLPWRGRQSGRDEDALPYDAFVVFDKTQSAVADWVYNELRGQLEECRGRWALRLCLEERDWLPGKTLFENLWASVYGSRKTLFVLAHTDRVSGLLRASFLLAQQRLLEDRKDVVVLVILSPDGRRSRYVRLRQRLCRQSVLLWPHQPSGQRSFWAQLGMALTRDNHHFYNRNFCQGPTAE
Nature of the assay: HEK293-Blue-hTLR-9 cells assay. In kind it is cell-based. The conditions noted are these: HEK293-Blue-hTLR9 cells, ODN2006 stimulation, 20 hrs, SEAP reporter; read-out: HEK/hTLR9 IC50. Put shortly:
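Antagonist mode in HEK293-Blue hTLR9 reporter cells (SEAP under NF-κB/AP-1 sites), stimulated with ODN2006 added from a 20 uM solution. Serially diluted compound (1% DMSO final) was incubated 20 hrs at 37° C. Supernatant SEAP was developed with QUANTI-Blue for 2 h at 37° C and read at 620˜655 nm.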
For the compound `C[C@@H]1CN(c2ccc(C#N)c3ncccc23)C[C@@H]2c3ccc(N4CCOC5CNCC54)cc3CN12` (stereo partly drawn) [Example 52, 5-[(4R,10bS)-8-(3,4a,5,6,7,7a-hexahydro-2H-pyrrolo[3,4-b][1,4]oxazin-4-yl)-4-methyl-3,4,6,10b-tetrahydro-1H-pyrazino[2,1-a]isoindol-2-yl]quinoline-8-carbonitrile], the IC50 is 195 nM.

Regarding `[2H]c1ccc2c(N3C[C@@H](C)N4Cc5cc(N6CC7CNCC(C6)O7)ccc5[C@H]4C3)ccc(C#N)c2n1` [Example 93, 5-[(4R,10bS)-4-methyl-8-(9-oxa-3,7-diazabicyclo[3.3.1]nonan-3-yl)-3,4,6,10b-tetrahydro-1H-pyrazino[2,1-a]isoindol-2-yl]-2-deuterio-quinoline-8-carbonitrile], the IC50 turned out to be 69.9 nM.

As for `CN[C@H]1CN(c2ccc3c(c2)CN2[C@H](C)CN(c4ccc(C#N)c5ncccc45)C[C@H]32)C[C@@H]1OC` [Example 23, 5-[(4R,10bS)-8-[(3S,4S)-3-methoxy-4-(methylamino)pyrrolidin-1-yl]-4-methyl-3,4,6,10b-tetrahydro-1H-pyrazino[2,1-a]isoindol-2-yl]quinoline-8-carbonitrile], the IC50 turned out to be 92.4 nM.

As to `C[C@@H]1CN(c2ccc(C#N)c3ncccc23)C[C@@H]2c3ccc(C4CNC4)cc3CN12` [Example 29, 5-[(4R,10bS)-8-(azetidin-3-yl)-4-methyl-3,4,6,10b-tetrahydro-1H-pyrazino[2,1-a]isoindol-2-yl]quinoline-8-carbonitrile], the IC50 is 43.3 nM.

Turning to `C[C@@H]1CN(c2ccc(C#N)c3ncccc23)C[C@@H]2c3ccc(N4C[C@H]5NCCO[C@@H]5C4)cc3CN12` [Example 44, 5-[(4R,10bS)-4-methyl-8-[(4aR,7aR)-3,4,4a,5,7,7a-hexahydro-2H-pyrrolo[3,4-b][1,4]oxazin-6-yl]-3,4,6,10b-tetrahydro-1H-pyrazino[2,1-a]isoindol-2-yl]quinoline-8-carbonitrile], the IC50 came out at 102 nM.

For the compound `C[C@@H]1CN(c2ccc(C#N)c3ncccc23)C[C@@H]2c3ccc(N4CC[C@@H](N)C4)cc3CN12` [Example 20, 5-[(4R,10bS)-8-[(3R)-3-aminopyrrolidin-1-yl]-4-methyl-3,4,6,10b-tetrahydro-1H-pyrazino[2,1-a]isoindol-2-yl]quinoline-8-carbonitrile], the IC50 turned out to be 86.9 nM.

For `C[C@@H]1CN(c2ccc(C#N)c3ncccc23)C[C@@H]2c3ccc(N4CCN[C@H](CO)C4)cc3CN12` [Example 12, 5-[(4R,10bS)-8-[(3S)-3-(hydroxymethyl)piperazin-1-yl]-4-methyl-3,4,6,10b-tetrahydro-1H-pyrazino[2,1-a]isoindol-2-yl]quinoline-8-carbonitrile], the IC50 was 71.2 nM.

Turning to `C[C@@H]1CN(c2ccc(C#N)c3ncccc23)C[C@@H]2c3ccc(N4CC(C)(N)C4)cc3CN12` [Example 39, 5-[(4R,10bS)-8-(3-amino-3-methyl-azetidin-1-yl)-4-methyl-3,4,6,10b-tetrahydro-1H-pyrazino[2,1-a]isoindol-2-yl]quinoline-8-carbonitrile], the IC50 is 123 nM.

With `C[C@@H]1CN(c2ccc(C#N)c3ncccc23)C[C@@H]2c3ccc(N[C@@H]4CNC[C@@H]4F)cc3CN12` [Example 32, 5-[(4R,10bS)-8-[[(3R,4S)-4-fluoropyrrolidin-3-yl]amino]-4-methyl-3,4,6,10b-tetrahydro-1H-pyrazino[2,1-a]isoindol-2-yl]quinoline-8-carbonitrile], the IC50 stood at 89.2 nM.

As to `CO[C@@H]1CN(c2ccc3c(c2)CN2[C@H](C)CN(c4ccc(C#N)n5ncc(F)c45)C[C@H]32)C[C@H]1N` [Example 113, 4-[(4R,10bS)-8-[(3R,4R)-3-amino-4-methoxy-pyrrolidin-1-yl]-4-methyl-3,4,6,10b-tetrahydro-1H-pyrazino[2,1-a]isoindol-2-yl]-3-fluoro-pyrazolo[1,5-a]pyridine-7-carbonitrile], the IC50 is 135 nM.
